One test deals with EP2 receptor (Homo sapiens, UniProt P43116). Put plainly: Specificity testing, EP2 receptor signaling. The format is cell-based.
Another test deals with IP receptor (Homo sapiens, UniProt P43119). Nature of the test: Specificity testing, IP receptor signaling. The format is cell-based. Here is the method:
(§1) There is no or minimal inhibition of the majority of the non-TP-mediated signaling observed in the presence of either NTP42 & NTP48. Where there is inhibition of signaling, it is observed at the 10 μM concentration only. […] Compared to NTP42, NTP48 has less of an effect on the signaling of the non-TP prostanoid receptors and therefore, may be considered more favorable in this context.

A further test concerns the target EP4 receptor (Homo sapiens, UniProt P35408). Nature of the test: Specificity testing, EP4 receptor signaling. The format is cell-based. Here is the method: as §1
A further test addresses T1, TPβ (Homo sapiens, UniProt P21731).
T1 construct: expressed in transfected cells; host or cells: HEK 293 (HEK.TPβ, isolate EM #8)
Put plainly: 8-iso-PGF2α-mediated calcium mobilization in HEK.TPβ cells. The format is cell-based. The conditions noted are these: 10 μM 8-iso-PGF2α, estimated IC50, read-out: IC50 values for inhibition of 8-iso-PGF2α-mediated [Ca2+]i mobilization, TPβ. The source says:
(§2) Effect of NTP42-NTP48 on 8-iso-PGF2α-mediated Calcium Mobilization In addition, to assessment of the compounds to antagonise U46619-mediated responses, the ability of NTP42 & NTP43 to inhibit the partial TP agonist 8-iso-PGF2α has been examined through calcium mobilization assays in HEK.TPα and HEK.TPβ cells.
(§3) Data is presented as the mean (±S.E.M.) percentage of the agonist-induced response in vehicle-treated cells (Percentage of Control; %) and represents data from at least 3 independent experiments were cells were treated in duplicate, except NTP48.

The next test concerns the target T2, TPα (Homo sapiens, UniProt P21731).
T2 construct: expressed in transfected cells; host or cells: HEK 293 (HEK.TPα, isolate HR #4)
T2 sequence (P21731 1-343): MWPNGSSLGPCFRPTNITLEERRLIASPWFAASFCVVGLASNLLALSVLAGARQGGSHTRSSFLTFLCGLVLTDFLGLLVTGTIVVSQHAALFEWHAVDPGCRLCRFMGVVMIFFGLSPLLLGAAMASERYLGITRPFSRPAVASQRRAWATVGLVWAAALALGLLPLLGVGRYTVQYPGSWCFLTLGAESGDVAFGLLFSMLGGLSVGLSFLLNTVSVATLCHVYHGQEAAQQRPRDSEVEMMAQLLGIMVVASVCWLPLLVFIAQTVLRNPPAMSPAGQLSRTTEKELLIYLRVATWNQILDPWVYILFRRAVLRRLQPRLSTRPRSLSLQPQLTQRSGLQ
Nature of the test: 8-iso-PGF2α-mediated calcium mobilization in HEK.TPα cells. The format is cell-based. To be noted: 10 μM 8-iso-PGF2α, estimated IC50, read-out: IC50 values for inhibition of 8-iso-PGF2α-mediated [Ca2+]i mobilization, TPα.
Description: as §2, §3

Another test concerns MCT-induced PAH. Put plainly: Monocrotoline (MCT)-induced model of pulmonary arterial hypertension (PAH) in rats. The format is in vivo, rat. The conditions noted are these: for lumen: total vessel diameter ratio versus animals treated with MCT-alone: day 28, oral BID, NTP42 and TP20 0.25 mg/kg/dose, Sildenafil 50 mg/kg/dose. Here is the method: FIGS. 19-23 show the efficacy of NTP42 in the monocrotoline (MCT)-induced model of pulmonary arterial hypertension (PAH) in rats. In brief, male Wistar/Kyoto rats were given a single dose of MCT (60 mg/kg, subcutaneously) and then treated with twice daily doses (oral dosing) for 28 days with either the drug vehicle, the test article NTP42 (0.25 mg/kg/dose, BID) or with the reference compounds Sildenafil (50 mg/kg/dose, BID) or TP20 (0.25 mg/kg/dose, BID). As a control, a group of rats were left untreated, i.e., no MCT or therapeutic drugs. At Day 28, post-MCT induction, rats were anaesthetised for cardiac surgery & hemodynamic parameters recorded. Thereafter, the trachea, heart & lungs were removed en masse, the wet weights of the heart & lungs recorded and then the lungs were harvested, fixed and processed for histopathology.
Aperio's ImageScope was used to analyze the digitally scanned H&E stained lung sections, where 10 random squares (approx. size or each square=1×10^6 μm^2) per lower, middle and upper section of lung tissue were selected for analysis. Within each square, all blood arterioles (complete arterioles within each square and those touching the right & bottom were assessed but not the left or top of the squares) were measured in ImageScope for luminal and total vessel diameter where the ratio of lumen to total vessel diameter was determined for each arteriole.
FIGS. 24-27 show the effect of the test articles on the mean (±S.E.M.) lumen: total vessel diameter ratio for all arterioles (Total) and the arterioles categorized by size: small, <50 μm total diameter; medium, 50-100 μm and large, >100 μm.
FIG. 27 presents data representing the mean (±SEM) lumen: total vessel diameter ratio for large arterioles (>100 μm).

For a further test, the target named is T3, TP (Homo sapiens, UniProt P21731).
T3 construct: CEREP
T3 sequence (P21731 1-343): T2 sequence (P21731 1-343)
Nature of the test: U44069-mediated [Ca2+]i mobilization (CEREP). The format is cell-based. To be noted: CEREP assay, agonist U44069; read-out: IC50 Value for Inhibition of U44069-Mediated [Ca2+]i Mobilization. The text has this: FIG. 18 presents the effect of NTP42 and NTP48 on TP- or U44069-mediated signaling (CEREP use the related U44069 rather than U46619), including IC50 values for inhibition (see also Table 4). Those effects indicate that NTP42 & NTP48 are potent antagonists of U46609 or TP. The differences in IC50 values may be attributed to the differences in the particular conditions of the assay, including differences in cell type, agonist, calcium indicator, etc.
Table 4 is an example of the IC50 values of NTP42 and NTP48 to antagonize TP-mediated [Ca^2+]i mobilization following stimulation of cells with the alternative TP agonist […].

The mark [1] stands for this setting: maximal inhibition, at 10 μM only.

The structures appear in SMILES notation.

The IC50 is the concentration that inhibits the measured activity by half.

EP4 receptor, sequence (P35408 whole entry): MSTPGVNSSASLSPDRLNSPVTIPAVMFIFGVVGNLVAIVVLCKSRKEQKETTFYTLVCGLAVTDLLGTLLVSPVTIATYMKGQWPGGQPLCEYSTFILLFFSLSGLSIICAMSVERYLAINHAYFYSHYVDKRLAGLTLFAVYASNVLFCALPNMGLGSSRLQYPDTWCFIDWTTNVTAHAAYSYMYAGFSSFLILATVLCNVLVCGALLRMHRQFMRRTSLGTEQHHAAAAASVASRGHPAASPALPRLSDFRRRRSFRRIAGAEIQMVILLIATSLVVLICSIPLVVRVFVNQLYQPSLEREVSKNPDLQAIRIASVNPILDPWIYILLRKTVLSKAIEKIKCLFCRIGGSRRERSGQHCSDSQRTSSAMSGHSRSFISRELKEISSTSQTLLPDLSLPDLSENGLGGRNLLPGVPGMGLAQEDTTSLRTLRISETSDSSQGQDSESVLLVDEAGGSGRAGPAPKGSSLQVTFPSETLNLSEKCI
EP2 receptor, sequence (P43116 whole entry): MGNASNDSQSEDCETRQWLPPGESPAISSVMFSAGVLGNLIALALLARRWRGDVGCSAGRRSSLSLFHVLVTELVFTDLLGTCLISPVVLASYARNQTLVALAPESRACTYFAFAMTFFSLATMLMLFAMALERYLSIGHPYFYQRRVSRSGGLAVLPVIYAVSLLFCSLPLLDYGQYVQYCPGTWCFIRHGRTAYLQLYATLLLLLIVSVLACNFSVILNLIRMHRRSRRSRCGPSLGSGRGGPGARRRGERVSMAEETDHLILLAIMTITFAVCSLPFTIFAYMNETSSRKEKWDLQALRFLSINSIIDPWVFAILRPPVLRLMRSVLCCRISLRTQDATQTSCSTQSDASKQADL
T1 sequence (P21731 1-407 isoform P21731-2): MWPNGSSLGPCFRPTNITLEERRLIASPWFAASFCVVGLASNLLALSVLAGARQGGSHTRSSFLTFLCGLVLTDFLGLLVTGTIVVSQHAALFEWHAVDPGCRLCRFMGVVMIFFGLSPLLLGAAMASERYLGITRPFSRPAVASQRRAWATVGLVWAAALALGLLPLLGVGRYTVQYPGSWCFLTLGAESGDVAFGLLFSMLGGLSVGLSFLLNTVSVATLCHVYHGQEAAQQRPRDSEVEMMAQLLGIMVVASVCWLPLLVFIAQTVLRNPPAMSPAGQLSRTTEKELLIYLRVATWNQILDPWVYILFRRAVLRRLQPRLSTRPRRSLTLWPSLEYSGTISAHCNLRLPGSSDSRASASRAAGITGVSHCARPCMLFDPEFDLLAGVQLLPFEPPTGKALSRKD
IP receptor, sequence (P43119 whole entry): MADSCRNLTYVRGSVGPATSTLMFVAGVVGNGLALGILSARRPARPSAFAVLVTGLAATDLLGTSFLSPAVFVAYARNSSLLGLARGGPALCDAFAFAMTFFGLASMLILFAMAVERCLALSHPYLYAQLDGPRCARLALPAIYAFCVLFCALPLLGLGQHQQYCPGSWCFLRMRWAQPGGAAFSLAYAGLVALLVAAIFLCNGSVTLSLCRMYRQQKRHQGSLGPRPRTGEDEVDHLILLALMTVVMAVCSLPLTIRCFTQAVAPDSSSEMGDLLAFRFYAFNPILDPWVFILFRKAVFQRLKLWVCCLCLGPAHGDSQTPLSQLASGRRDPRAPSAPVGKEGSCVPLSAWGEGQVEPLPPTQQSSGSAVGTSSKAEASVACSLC

Turning to `COc1ccc(-c2cccc(Oc3ccc(C#N)cc3S(=O)(=O)NC(=O)NC(C)(C)C)c2)cc1` [NTP4, reference compound], the “effect on the EP2 receptor” value at EP2 receptor is “like TP20 and NTP4, neither NTP42, NTP43 nor NTP48 exhibited any effect”. Moreover, the “effect on the IP receptor” value at IP receptor was “like TP20 and NTP4, neither NTP42, NTP43 nor NTP48 exhibited any effect”. For the same compound, on EP4 receptor, the “effect on the EP4 receptor” value was “like TP20 and NTP4, neither NTP42, NTP43 nor NTP48 exhibited any effect”. In addition, the half-maximal inhibitory concentration (IC50) on TPβ was 58 ± 6.31 nM; on TPα it was 103 ± 11.1 nM.
On to `CC(C)(C)NC(=O)NS(=O)(=O)c1cc(C#N)ccc1Oc1cccc(-c2ccc(OC(F)F)cc2)c1` [NTP42], for which the “efficacy in the MCT-induced PAH model (hemodynamic and histological features)” value in the test with MCT-induced PAH (MCT 60 mg/kg s.c., oral 0.25 mg/kg/dose BID for 28 days) is given as “efficacious”. Also, the “lumen: total vessel diameter ratio versus animals treated with MCT-alone” value with MCT-induced PAH is “significantly increased”. For the same compound, the IC50 at TP was 3.28 ± 0.34 nM; on TPβ, 8 ± 1 nM; on TPα, 12.8 ± 1.42 nM. For the same compound, the “effect on the EP2 receptor” value on EP2 receptor is “no effect”. At IP receptor, the “effect on the IP receptor” value was “no effect”. Also, on IP receptor (setting [1]), the “percentage reduction in responses, IP” value came to 50%. In addition, the “effect on the EP4 receptor” value on EP4 receptor was “no effect”. The “percentage reduction in responses, EP4” value on EP4 receptor (setting [1]) is listed as 40%.
For the compound `COc1ccc(-c2cccc(Oc3ccc([N+](=O)[O-])cc3S(=O)(=O)NC(=O)NC(C)(C)C)c2)cc1` [TP20, reference compound], the “lumen: total vessel diameter ratio versus animals treated with MCT-alone” value in the test on MCT-induced PAH is on record as “significantly increased”. Further, the “effect on the EP2 receptor” value at EP2 receptor is “like TP20 and NTP4, neither NTP42, NTP43 nor NTP48 exhibited any effect”. Besides, the “effect on the IP receptor” value at IP receptor was “like TP20 and NTP4, neither NTP42, NTP43 nor NTP48 exhibited any effect”. Also, the “effect on the EP4 receptor” value on EP4 receptor is “like TP20 and NTP4, neither NTP42, NTP43 nor NTP48 exhibited any effect”. Also, the results for the IC50 on TPβ and on TPα were 17 ± 2.12 nM and 46.4 ± 4.24 nM, respectively.
`CN(C)C(=O)c1ccc(-c2cccc(Oc3ccc(C#N)cc3S(=O)(=O)NC(=O)NC(C)(C)C)c2)cc1` [NTP48, 4-[3-[2-(tert-Butylcarbamoylsulfamoyl)-4-cyano-phenoxy]phenyl]-N,N-dimethyl-benzamide]: the results for the IC50 on TP, on TPβ and at TPα were 7.71 ± 0.96 nM, 15.4 ± 2.16 nM and 29.3 ± 3.87 nM, respectively. Moreover, at EP2 receptor, the “effect on the EP2 receptor” value is recorded as “no effect”. Besides, the “effect on the IP receptor” value on IP receptor is “no effect”. The “effect on the EP4 receptor” value on EP4 receptor is listed as “no effect”.
With `CC(C)(C)NC(=O)NS(=O)(=O)c1cc(C#N)ccc1Oc1cccc(-c2ccc(OC(F)(F)F)cc2)c1` [NTP43], on EP2 receptor, the “effect on the EP2 receptor” value is listed as “not to exhibit any effect”. In addition, the “effect on the IP receptor” value at IP receptor was “not to exhibit any effect”. Also, the “effect on the EP4 receptor” value at EP4 receptor is given as “not to exhibit any effect”. The IC50 was 9 ± 1.6 nM at TPβ and 30.7 ± 5.05 nM at TPα.

The values are drawn from patent US10966994B2, “Thromboxane receptor antagonists” (ATXA THERAPEUTICS LIMITED, priority 2015, dated 2021).
